Assay results as given in US20110039763A1, “TARGETED ANTIMICROBIAL MOIETIES” (C3 JIAN, INC., priority 2009, published 2011).
Entries after “also recorded” stand apart in the source; their conditions may differ.

Tests used:
microorganisms [1] = assay: Peptide activities: targeting/binding, antimicrobial, growth or phenotype altering (Tables 7, 8); assay type: cell-based; details: peptides having multiple activities
microorganisms [2] = assay: Targeting peptide binding to target microorganisms (Tables 3, 10, 12); details: microorganism(s) the targeting peptide binds; binding in aqueous buffers varied with peptide solubility, preferably 1x PBS
microorganisms [3] = assay: Morphology, biofilm and growth disrupting peptides (Table 5); assay type: cell-based; design: key: A: Peptide aggregates; B: Less hyphal formation; Clumps; Diffuse clumps and small polyps; F: Diffuse growth; H: Thin; I: Growth inhibition; Microcolony formation; Rippled; Small polyps; Thick; W: Halo formation on top, microlonies on bottom
Description: In certain embodiments peptides that induce alterations in phenotype or other biological activities can also be used as antimicrobial effector moieties.

Which results are given for “PF-393: peptide having multiple activities (chain 1 DLVQSILSEFKKSG; chain 2 DLVQSILSEFKKSG; Peptide with targeting and/or antimicrobial activity)”?
Activities (microorganisms [1]): G B; Target(s) (microorganisms [2]): S. epidermidis and E. coli and C. albicans and MRSA and S. pneumoniae and C. jejuni; Organism, effect: C. jejuni (microorganisms [3]; C. jejuni): C. jejuni (R); Organism, effect: E. faecalis (microorganisms [3]): E. faecalis (A); Organism, effect: MRSA (microorganisms [3]): MRSA (C); Organism, effect: S. epidermidis (microorganisms [3]): S. epidermidis (R); Organism, effect: S. pneumoniae (microorganisms [3]): S. pneumoniae (R)

How did the Activities (microorganisms [1]) turn out when “PF-394: peptide having multiple activities (chain 1 VLKEECYQKN; chain 2 VLKEECYQKN; Peptide with targeting and/or antimicrobial activity)” was run?
The Activities was “G B”.

And the “Target(s)” value (microorganisms [2])?
The value was “S. epidermidis and MRSA and C. jejuni”.

And the “Organism, effect: E. faecalis” value (microorganisms [3])?
Its value is “E. faecalis (A)”.

What about the “Organism, effect: MRSA” value (microorganisms [3]) of the same substance?
The value was “MRSA (C)”.

“PF-395: peptide having multiple activities (chain 1 YCVPLGNMGNMNNKIW; chain 2 YCVPLGNMGNMNNKIW; Peptide with targeting and/or antimicrobial activity)” was tested. Which Activities (microorganisms [1]) did it give?
Its Activities is “G B”.

What about the “Target(s)” value (microorganisms [2]) of the same substance?
The value was “S. epidermidis; also recorded: E. coli; also recorded: P. aeruginosa; also recorded: S. pneumoniae; also recorded: E. faecalis; also recorded: C. jeikeium; also recorded: C. jejuni”.

What about the “Organism, effect: E. coli” value (microorganisms [3]) of the same substance?
The value was “E. coli (R)”.

What about the “Organism, effect: MRSA” value (microorganisms [3]) of the same substance?
The value was “MRSA (C)”.

And the “Organism, effect: S. epidermidis” value (microorganisms [3])?
The value was “S. epidermidis (C)”.

For “PF-396: peptide having multiple activities (chain 1 LIYTILASLGVLTVLQAILGREPKAVKA; chain 2 LIYTILASLGVLTVLQAILGREPKAVKA; Peptide with targeting and/or antimicrobial activity)”, which Activities (microorganisms [1]) is on record?
Its Activities is “G B”.

And the “Target(s)” value (microorganisms [2])?
The value was “S. epidermidis; also recorded: E. coli; also recorded: P. aeruginosa; also recorded: C. albicans; also recorded: E. faecalis; also recorded: C. jeikeium”.

What about the “Organism, effect: E. coli” value (microorganisms [3]) of the same substance?
The value was “E. coli (C)”.

And the “Organism, effect: E. faecalis” value (microorganisms [3])?
Its value is “E. faecalis (C)”.

What about the “Organism, effect: MRSA” value (microorganisms [3]) of the same substance?
Its value is “MRSA (C)”.

And the “Organism, effect: S. epidermidis” value (microorganisms [3])?
The value was “S. epidermidis (S)”.

What does the source list for “PF-397: peptide having multiple activities (chain 1 VEDLMEDLNA; chain 2 VEDLMEDLNA; Peptide with targeting and/or antimicrobial activity)”?
Activities (microorganisms [1]): G B; Target(s) (microorganisms [2]): S. epidermidis and MRSA and S. pneumoniae and E. faecalis and C. jejuni; Organism, effect: S. epidermidis (microorganisms [3]): S. epidermidis (C)

How did the Activities (microorganisms [1]) turn out when “PF-401: peptide having multiple activities (chain 1 YWLSRVTTGHSFAFEKPVPLSLTIK; chain 2 YWLSRVTTGHSFAFEKPVPLSLTIK; Peptide with targeting and/or antimicrobial activity)” was run?
Its Activities is “G B”.

What about the “Target(s)” value (microorganisms [2]) of the same substance?
Its value is “S. epidermidis and E. coli and P. aeruginosa and MRSA and E. faecalis and C. jejuni”.

And the “Organism, effect: E. coli” value (microorganisms [3])?
The value was “E. coli (R)”.

And the “Organism, effect: E. faecalis” value (microorganisms [3])?
The value was “E. faecalis (C)”.

What about the “Organism, effect: MRSA” value (microorganisms [3]) of the same substance?
Its value is “MRSA (C)”.

And the “Organism, effect: S. epidermidis” value (microorganisms [3])?
The value was “S. epidermidis (C)”.

How did the Activities (microorganisms [1]) turn out when “PF-403: peptide having multiple activities (chain 1 LLSTEQLLKYYDGETFDGFQLPSNE; chain 2 LLSTEQLLKYYDGETFDGFQLPSNE; Peptide with targeting and/or antimicrobial activity)” was run?
The Activities was “G B”.

What about the “Target(s)” value (microorganisms [2]) of the same substance?
Its value is “E. coli; also recorded: P. aeruginosa; also recorded: S. pneumoniae; also recorded: E. faecalis; also recorded: C. jeikeium; also recorded: C. jejuni”.

And the “Organism, effect: E. coli” value (microorganisms [3])?
The value was “E. coli (R)”.

And the “Organism, effect: MRSA” value (microorganisms [3])?
The value was “MRSA (M)”.

And the “Organism, effect: S. epidermidis” value (microorganisms [3])?
Its value is “S. epidermidis (M)”.

Which results are given for “PF-404: peptide having multiple activities (chain 1 VLYFQATVV; chain 2 VLYFQATVV; Peptide with targeting and/or antimicrobial activity)”?
Activities (microorganisms [1]): G B; Target(s) (microorganisms [2]): S. epidermidis; also recorded: E. coli; also recorded: P. aeruginosa; also recorded: E. faecalis; also recorded: C. jeikeium; also recorded: C. jejuni; Organism, effect: MRSA (microorganisms [3]): MRSA (M); Organism, effect: S. epidermidis (microorganisms [3]): S. epidermidis (M)

For “PF-405: peptide having multiple activities (chain 1 LVRIEVDDLEEWYERNFI; chain 2 LVRIEVDDLEEWYERNFI; Peptide with targeting and/or antimicrobial activity)”, which Activities (microorganisms [1]) is on record?
Its Activities is “G B”.

And the “Target(s)” value (microorganisms [2])?
Its value is “S. epidermidis; also recorded: E. coli; also recorded: E. faecalis”.

And the “Organism, effect: MRSA” value (microorganisms [3])?
Its value is “MRSA (M)”.

What does the source list for “PF-406: peptide having multiple activities (chain 1 YLEMNADYLSNMDIFDELWEKYLENNK; chain 2 YLEMNADYLSNMDIFDELWEKYLENNK; Peptide with targeting and/or antimicrobial activity)”?
Activities (microorganisms [1]): G B; Target(s) (microorganisms [2]): E. coli; also recorded: C. jejuni; Organism, effect: MRSA (microorganisms [3]): MRSA (M); Organism, effect: S. epidermidis (microorganisms [3]): S. epidermidis (C)

Which results are given for “PF-408: peptide having multiple activities (chain 1 YCVPLGNMGNMNNKIW; chain 2 YCVPLGNMGNMNNKIW; Peptide with targeting and/or antimicrobial activity)”?
Activities (microorganisms [1]): G B; Target(s) (microorganisms [2]): S. epidermidis and E. coli and P. aeruginosa and MRSA and E. faecalis and C. jeikeium and C. jejuni; Organism, effect: MRSA (microorganisms [3]): MRSA (M); Organism, effect: S. epidermidis (microorganisms [3]): S. epidermidis (M)

Which Activities (microorganisms [1]) does the source give for “PF-413: peptide having multiple activities (chain 1 TFAGSIKIGVPDLVHVTFNCKR; chain 2 TFAGSIKIGVPDLVHVTFNCKR; Peptide with targeting and/or antimicrobial activity)” here?
Its Activities is “G B”.

And the “Target(s)” value (microorganisms [2])?
Its value is “P. aeruginosa; also recorded: C. albicans; also recorded: C. jejuni”.

What about the “Organism, effect: E. coli” value (microorganisms [3]) of the same substance?
The value was “E. coli (S)”.

And the “Organism, effect: MRSA” value (microorganisms [3])?
Its value is “MRSA (C)”.

And the “Organism, effect: S. epidermidis” value (microorganisms [3])?
Its value is “S. epidermidis (C)”.

How did the Activities (microorganisms [1]) turn out when “PF-414: peptide having multiple activities (chain 1 LLNKKLE; chain 2 LLNKKLE; Peptide with targeting and/or antimicrobial activity)” was run?
Its Activities is “G B”.

What about the “Target(s)” value (microorganisms [2]) of the same substance?
Its value is “E. coli; also recorded: C. albicans; also recorded: C. jeikeium”.

And the “Organism, effect: S. pneumoniae” value (microorganisms [3])?
Its value is “S. pneumoniae (H)”.

What does the source list for “PF-416: peptide having multiple activities (chain 1 SKAGLYGKIERSDKRE; chain 2 SKAGLYGKIERSDKRE; Peptide with targeting and/or antimicrobial activity)”?
Activities (microorganisms [1]): G B; Target(s) (microorganisms [2]): S. pneumoniae; also recorded: C. jeikeium; Organism, effect: S. pneumoniae (microorganisms [3]): S. pneumoniae (H)
